The record followed here is US9138389B2, “Use of a jasmonic acid compound for treating greasy skin” (L'OREAL, priority 2009, dated 2015).

The test system of the assay is greasy skin. The assay is described as follows: in vivo panel test with a cosmetic composition on greasy skin. The conditions noted are these: cosmetic composition comprising the compound.

Take `CCCCCC1C(O)CCC1CC(=O)O` (stereo not shown) [3-hydroxy-2-pentylcyclopentaneacetic acid]: the “efficacy for treating greasy skin” value is “revealed the efficacy of the compound for treating greasy skin”.
